Experimental findings from patent publication US20260217698A1 (BEYANG THERAPEUTICS CO., LTD., priority 2022, published 2026) are described below.

Structures are written as SMILES. In brackets after ≈: the same amount, converted by molar mass.

One data set deals with T1, VEGFR1 (Homo sapiens, UniProt P17948).
T1 construct: purchased Invitrogen PR6731B
In words: Kinase inhibition, Mobility Shift Assay/IMAP, VEGFR1. The format is biochemical. The method in brief:
(§1)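 Substrate conversion (phosphorylated vs non-phosphorylated) read by mobility shift on Caliper EZ Reader II and converted to % inhibition relative to no-enzyme and DMSO controls. IC50 fitted from % inhibition versus log compound concentration.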

Another data set deals with T2, VEGFR3 (Homo sapiens, UniProt P35916).
T2 construct: purchased Invitrogen PV4129
Description: Kinase inhibition, Mobility Shift Assay/IMAP, VEGFR3. It counts as biochemical. The method in brief:
as §1

The target in a further data set is T3, TIE2 (Homo sapiens, UniProt Q02763).
T3 construct: purchased BPS 40270
In words: Kinase inhibition, Mobility Shift Assay/IMAP, TIE2. The format is biochemical. The gist of the method:
as §1

The next data set concerns the target T4, EGFR (Homo sapiens, UniProt P00533).
T4 construct: purchased Carna 08-115
Description: Kinase inhibition, Mobility Shift Assay/IMAP, EGFR. It counts as biochemical. The method in brief: as §1

The subject of the next data set is HUVEC cells. In words: Inhibition of VEGF-induced HUVEC cell proliferation, CellTiter Glo. It counts as cell-based. The settings on record: Homo sapiens, 20 ng/ml VEGF, 72 hours. The source says: In this experiment, human umbilical vein endothelial cells (HUVEC, Lonza) were used. HUVEC cells are primary cells isolated from umbilical veins. This cell line is a model system to study the functions of endothelial cells. Endothelial cell proliferation in response to VEGF is crucial to the pathological angiogenesis associated with conditions such as tumor development and ocular neovascular diseases.
In this assay, a luciferase bioluminescence assay (CellTiter GLU™, Promega) is used to determine the inhibitory activity of the compounds against VEGF-induced HUVEC cell proliferation and viability. CellTiter GLO™ is a homogeneous method for quantifying the count of viable cells in culture based on ATP, an indicator of metabolically active cells. In this assay, the compound was incubated with HUVEC cells for 72 hours, and then the inhibitory activity of the resulting compound against VEGF-induced HUVEC cell proliferation was measured on the En Vision plate reader.
With the RPMI-1640 medium (plus 5% FBS, 1% Penicillin-Streptomycin) used for the HUVEC cell proliferation experiment, add a cell suspension to a 96-well plate at 100 μl per well, i.e., 4000 HUVEC cells/well, and incubate them overnight in a 5% CO2 incubator at 37° C. (serum starvation). After 24 hours, add 96 μl of the experimental medium to the cell wells, and then add 2 μl of the compound to the cell wells; and after 1 hour following the addition of the compound, add 2 μl of 2 μg/ml VEGF to the cell wells. Add 0.1% DMSO and 20 ng/ml VEGF to cell wells to serve as high-reading control wells. Take cell-free wells with only medium as low-reading control wells. […] After 72 hours of incubation of the cell plate in the incubator, hold the cell plate to be tested at room temperature and discard 100 μl of medium per well. Add 100 μl of CTG reagent (CellTiter Glo kit) per well, oscillate the cell plate in a fast oscillator for 3 minutes, and keep the cell plate at room temperature in the dark for 30 minutes. Read the chemiluminescence signal value with the Envision instrument.
X indicates the log value of compound concentration, Y indicates the inhibition rate (% inhibition), Top indicates the readout of the high-reading control well.
In general terms: ATP-based viability assays read luminescence as a measure of living cells.

The test system of another data set is melanin. In words: Binding capacity of compounds to melanin. Particulars: cuttlefish (Sepia officinalis), melanin suspension (1 mg/mL); 1 mg/mL melanin in PBS pH 7.4, 2 μM compound, 2 h at 37° C.; read-out: Fu % (percentage of free drug). The format is in vitro ADME, cuttlefish (Sepia officinalis). The gist of the method: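 Compound (2 μM final) incubated with washed Sepia melanin (1 mg/mL, PBS pH 7.4) 2 h at 37° C with shaking; PBS with 0.1% BSA served as blank. Supernatants quantified by LC-MS/MS; bound fraction Fb derived from melanin versus blank concentration.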

For a further data set, the target named is VEGFR2 (Homo sapiens, UniProt P35968). In words: Kinase inhibition, Mobility Shift Assay/IMAP, VEGFR2. It counts as biochemical. On the set-up: purchased Carna 08-191. The gist of the method:
as §1

The nature of data set [1]: Solubility test in buffer, LC-MS. The format is physicochemical. Particulars: aqueous buffer, thermodynamic from solid, room temperature, shaking 8 h, pH not given (method: pH 2.0, 6.5, 7.4). On the procedure:
Accurately weigh 3 portions of about 2 mg of the compound, and add appropriate volumes of buffers with the pHs of 2.0, 6.5, and 7.4 respectively to obtain a solution with a concentration of 2 mg/mL. After sonication for 10 min, fix them on a shaker and shaking for 8 h at room temperature. After shaking, sonicate for 10 min and centrifuge for 15 min at 13,000 rpm. Pipette 0.1 mL of supernatant into a new tube, shake and rinse it with 5 mL, and discard the liquid. Transfer 0.5 mL of the supernatant again to a new tube, centrifuge it for 15 min at 13,000 rpm, then collect the supernatant (if necessary, dilute with water) and analyze it by LC-MS. The sample concentrations at 3~5 points are subjected to fitting and reticle for quantification.

T1 sequence (P17948 27-1338): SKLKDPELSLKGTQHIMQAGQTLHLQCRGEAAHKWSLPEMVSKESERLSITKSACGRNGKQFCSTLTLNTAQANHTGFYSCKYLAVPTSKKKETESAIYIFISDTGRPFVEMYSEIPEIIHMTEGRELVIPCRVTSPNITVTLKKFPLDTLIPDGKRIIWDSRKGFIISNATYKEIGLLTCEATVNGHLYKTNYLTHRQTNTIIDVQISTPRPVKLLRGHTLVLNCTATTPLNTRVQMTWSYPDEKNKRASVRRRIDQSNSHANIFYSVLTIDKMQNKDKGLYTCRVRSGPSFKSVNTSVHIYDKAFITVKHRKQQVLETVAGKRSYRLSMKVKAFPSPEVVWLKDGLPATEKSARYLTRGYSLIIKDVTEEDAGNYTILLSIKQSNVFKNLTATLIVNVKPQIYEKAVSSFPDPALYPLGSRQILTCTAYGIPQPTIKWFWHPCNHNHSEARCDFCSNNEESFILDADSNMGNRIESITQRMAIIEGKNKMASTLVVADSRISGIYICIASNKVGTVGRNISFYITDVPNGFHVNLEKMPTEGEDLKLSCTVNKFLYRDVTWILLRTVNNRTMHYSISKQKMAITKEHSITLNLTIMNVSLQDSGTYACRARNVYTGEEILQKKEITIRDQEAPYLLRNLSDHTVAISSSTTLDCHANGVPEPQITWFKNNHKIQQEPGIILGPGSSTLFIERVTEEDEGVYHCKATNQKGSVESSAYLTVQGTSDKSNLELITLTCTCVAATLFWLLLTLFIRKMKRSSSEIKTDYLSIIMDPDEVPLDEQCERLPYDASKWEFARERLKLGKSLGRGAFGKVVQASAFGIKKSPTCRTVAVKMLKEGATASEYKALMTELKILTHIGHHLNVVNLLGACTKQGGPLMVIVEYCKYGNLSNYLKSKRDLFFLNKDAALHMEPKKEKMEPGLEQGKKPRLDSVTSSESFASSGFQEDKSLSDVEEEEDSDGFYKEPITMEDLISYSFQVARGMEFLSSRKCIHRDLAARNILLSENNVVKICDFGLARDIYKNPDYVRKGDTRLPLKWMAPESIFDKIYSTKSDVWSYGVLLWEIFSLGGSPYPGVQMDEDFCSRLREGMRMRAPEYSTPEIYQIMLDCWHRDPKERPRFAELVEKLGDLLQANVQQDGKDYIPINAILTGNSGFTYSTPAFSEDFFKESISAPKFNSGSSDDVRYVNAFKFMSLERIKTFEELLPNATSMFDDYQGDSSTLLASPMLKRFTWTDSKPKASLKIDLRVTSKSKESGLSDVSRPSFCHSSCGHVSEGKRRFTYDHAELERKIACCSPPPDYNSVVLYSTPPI
T3 sequence (Q02763 23-1124): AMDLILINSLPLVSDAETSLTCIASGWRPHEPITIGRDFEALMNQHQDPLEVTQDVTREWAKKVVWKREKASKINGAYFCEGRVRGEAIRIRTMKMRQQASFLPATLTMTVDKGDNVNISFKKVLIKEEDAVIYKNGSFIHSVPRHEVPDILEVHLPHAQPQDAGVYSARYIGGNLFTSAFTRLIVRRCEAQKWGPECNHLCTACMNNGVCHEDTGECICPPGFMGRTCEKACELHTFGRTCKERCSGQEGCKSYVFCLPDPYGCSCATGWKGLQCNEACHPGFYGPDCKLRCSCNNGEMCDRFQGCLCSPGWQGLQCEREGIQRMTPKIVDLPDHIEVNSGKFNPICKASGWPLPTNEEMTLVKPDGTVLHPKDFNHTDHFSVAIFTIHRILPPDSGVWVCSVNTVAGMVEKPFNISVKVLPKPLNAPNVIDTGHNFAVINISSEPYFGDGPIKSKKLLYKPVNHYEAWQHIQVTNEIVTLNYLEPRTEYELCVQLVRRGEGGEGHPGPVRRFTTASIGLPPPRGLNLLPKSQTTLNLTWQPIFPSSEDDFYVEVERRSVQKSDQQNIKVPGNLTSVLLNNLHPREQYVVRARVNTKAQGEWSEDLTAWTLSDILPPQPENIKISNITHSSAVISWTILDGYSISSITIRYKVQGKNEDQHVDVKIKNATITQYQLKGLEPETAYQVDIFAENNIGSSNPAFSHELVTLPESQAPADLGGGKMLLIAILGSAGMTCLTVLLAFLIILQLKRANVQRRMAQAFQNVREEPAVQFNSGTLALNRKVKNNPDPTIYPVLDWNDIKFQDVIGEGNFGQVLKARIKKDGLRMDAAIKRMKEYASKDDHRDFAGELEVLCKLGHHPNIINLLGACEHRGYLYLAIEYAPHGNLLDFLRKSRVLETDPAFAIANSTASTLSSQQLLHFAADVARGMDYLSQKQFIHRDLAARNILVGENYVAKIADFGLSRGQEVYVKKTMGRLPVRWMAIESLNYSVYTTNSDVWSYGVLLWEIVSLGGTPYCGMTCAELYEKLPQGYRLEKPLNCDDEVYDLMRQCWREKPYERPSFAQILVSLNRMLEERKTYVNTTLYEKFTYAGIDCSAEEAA
T2 sequence (P35916 25-1363): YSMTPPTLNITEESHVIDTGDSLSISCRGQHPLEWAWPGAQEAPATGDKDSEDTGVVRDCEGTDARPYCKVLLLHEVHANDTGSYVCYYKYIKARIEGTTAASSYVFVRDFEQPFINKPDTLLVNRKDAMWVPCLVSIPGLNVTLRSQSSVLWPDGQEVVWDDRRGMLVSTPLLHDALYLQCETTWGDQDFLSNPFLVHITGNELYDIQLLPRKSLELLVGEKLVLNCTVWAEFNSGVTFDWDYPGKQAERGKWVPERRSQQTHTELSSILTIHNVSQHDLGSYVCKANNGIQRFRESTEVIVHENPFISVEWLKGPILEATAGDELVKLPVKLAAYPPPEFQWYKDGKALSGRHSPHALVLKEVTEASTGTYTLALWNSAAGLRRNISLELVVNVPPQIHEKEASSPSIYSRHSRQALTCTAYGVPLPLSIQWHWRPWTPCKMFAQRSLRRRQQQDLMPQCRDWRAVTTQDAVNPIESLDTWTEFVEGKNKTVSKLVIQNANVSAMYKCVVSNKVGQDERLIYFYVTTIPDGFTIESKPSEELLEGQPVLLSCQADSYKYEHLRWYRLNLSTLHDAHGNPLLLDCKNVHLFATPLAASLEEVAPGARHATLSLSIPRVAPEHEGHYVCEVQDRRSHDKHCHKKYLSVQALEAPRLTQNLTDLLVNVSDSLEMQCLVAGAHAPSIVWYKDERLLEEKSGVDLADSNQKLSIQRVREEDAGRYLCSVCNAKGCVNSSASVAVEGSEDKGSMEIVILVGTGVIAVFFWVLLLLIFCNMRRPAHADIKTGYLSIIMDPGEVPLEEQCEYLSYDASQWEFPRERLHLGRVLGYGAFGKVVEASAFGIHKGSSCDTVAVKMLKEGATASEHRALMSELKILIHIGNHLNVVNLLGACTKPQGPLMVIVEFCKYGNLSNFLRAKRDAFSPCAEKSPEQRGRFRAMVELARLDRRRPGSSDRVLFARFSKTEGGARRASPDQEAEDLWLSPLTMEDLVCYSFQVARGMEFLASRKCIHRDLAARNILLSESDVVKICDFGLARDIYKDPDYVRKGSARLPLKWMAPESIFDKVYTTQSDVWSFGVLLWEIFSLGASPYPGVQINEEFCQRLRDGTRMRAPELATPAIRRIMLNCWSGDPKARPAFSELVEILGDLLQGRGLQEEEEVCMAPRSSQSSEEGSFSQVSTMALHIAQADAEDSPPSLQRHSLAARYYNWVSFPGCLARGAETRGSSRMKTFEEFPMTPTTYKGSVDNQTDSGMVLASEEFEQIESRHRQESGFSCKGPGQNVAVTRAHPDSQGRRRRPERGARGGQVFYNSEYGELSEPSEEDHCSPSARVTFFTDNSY
VEGFR2, sequence (P35968 790-1356 limits assumed): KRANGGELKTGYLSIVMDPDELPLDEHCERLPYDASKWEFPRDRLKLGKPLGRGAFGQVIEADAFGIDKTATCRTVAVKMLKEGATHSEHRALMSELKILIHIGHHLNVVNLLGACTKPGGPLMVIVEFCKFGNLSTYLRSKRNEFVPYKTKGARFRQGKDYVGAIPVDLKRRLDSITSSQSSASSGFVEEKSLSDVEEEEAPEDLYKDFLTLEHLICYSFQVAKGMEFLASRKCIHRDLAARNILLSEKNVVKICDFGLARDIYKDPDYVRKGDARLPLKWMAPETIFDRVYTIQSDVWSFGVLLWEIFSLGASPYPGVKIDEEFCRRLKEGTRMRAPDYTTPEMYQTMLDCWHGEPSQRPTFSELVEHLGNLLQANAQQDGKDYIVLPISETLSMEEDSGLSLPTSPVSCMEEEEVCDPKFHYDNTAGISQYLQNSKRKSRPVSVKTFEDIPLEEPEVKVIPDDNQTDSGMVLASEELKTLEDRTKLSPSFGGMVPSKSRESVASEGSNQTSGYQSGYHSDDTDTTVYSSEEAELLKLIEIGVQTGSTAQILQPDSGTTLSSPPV
T4 sequence (P00533 669-1210 limits assumed): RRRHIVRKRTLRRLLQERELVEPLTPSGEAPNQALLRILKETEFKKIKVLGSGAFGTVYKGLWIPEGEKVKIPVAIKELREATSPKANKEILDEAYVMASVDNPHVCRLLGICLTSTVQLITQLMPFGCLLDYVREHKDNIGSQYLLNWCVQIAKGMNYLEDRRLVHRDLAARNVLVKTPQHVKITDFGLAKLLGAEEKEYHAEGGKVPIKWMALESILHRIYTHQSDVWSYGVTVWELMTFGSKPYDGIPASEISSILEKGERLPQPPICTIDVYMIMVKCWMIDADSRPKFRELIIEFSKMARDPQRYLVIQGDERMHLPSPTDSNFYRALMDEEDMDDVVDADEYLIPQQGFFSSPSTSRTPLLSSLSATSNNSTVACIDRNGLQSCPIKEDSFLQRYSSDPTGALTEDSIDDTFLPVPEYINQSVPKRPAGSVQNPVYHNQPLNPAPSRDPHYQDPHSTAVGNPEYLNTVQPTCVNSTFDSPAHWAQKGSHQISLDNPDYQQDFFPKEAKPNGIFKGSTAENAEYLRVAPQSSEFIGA

The term IC50 denotes the point on the concentration scale where inhibition reaches its midpoint. In the case of `NC(=O)c1c(OCc2cc3c(cc2F)CCO3)nsc1NC(=O)NCCCCN1CC[C@@H](F)C1` [Compound T079, 3-[(5-fluoro-2,3-dihydrobenzofuran-6-yl)methoxy]-5-[4-[(3R)-3-fluoropyrrolidin-1-yl]butylcarbamoylamino]isothiazole-4-carboxamide], the IC50 at VEGFR1 amounted to 11.8 nM; on VEGFR3 it was 21.4 nM; at TIE2 it was 115 nM; at EGFR, 5140 nM; in the data set with HUVEC cells it was 57.7 nM; at VEGFR2, 4.47 nM. Moreover, in the data set on melanin, the fraction unbound at 2 h, 2 μM stood at 0.0526.
In general, solubility refers to the concentration that dissolves in the medium under given conditions. Higher therefore signals much dissolved substance. With `COc1cc(COc2nsc(NC(=O)NCCCCN3CC[C@@H](F)C3)c2C(N)=O)cc(OC)c1` [Compound T064, (R)-3-((3,5-dimethoxybenzyl)oxy)-5-(3-(4-(3-fluoropyrrolidin-1-yl)butyl)ureido)isothiazole-4-carboxamide], the IC50 is more than 60000 nM at EGFR, 79.2 nM in the data set on HUVEC cells and 43.3 nM on VEGFR2. Moreover, the concentration in solution in data set [1] (solubility at 8 h) was 400 µg/mL (≈ 807 µM). Further, in the data set with melanin, the fraction unbound at 2 h, 2 μM is 0.0269.
Turning to `NC(=O)c1c(OCc2cc(C(=O)NC3CC3)ccc2F)nsc1NC(=O)NCCCN1CC[C@@H](F)C1` [Compound T122, 3-[[5-(cyclopropylcarbamoyl)-2-fluoro-phenyl]methoxy]-5-[3-[(3R)-3-fluoropyrrolidin-1-yl]propylcarbamoylamino]isothiazole-4-carboxamide], the IC50 was found to be 2100 nM on TIE2, 5680 nM on EGFR, 44 nM with HUVEC cells and 2.55 nM on VEGFR2. Also, in data set [1], the concentration in solution (solubility at 8 h) was 1280 µg/mL (≈ 2450 µM). Also, the fraction unbound at 2 h, 2 μM with melanin came to 0.0372.
In the case of `NC(=O)c1c(OCc2cc3c(cc2F)CCO3)nsc1NC(=O)NCCCCN1CCCC1` [Compound T071, 3-((5-fluoro-2,3-dihydrobenzofuran-6-yl)methoxy)-5-(3-(4-(pyrrolidin-1-yl)butyl)ureido)isothiazole-4-carboxamide], the IC50 at VEGFR1 stood at 13.4 nM; at VEGFR3, 18.7 nM; on TIE2, 147 nM; at EGFR, 15200 nM; with HUVEC cells it was 74.5 nM; on VEGFR2, 4.36 nM. In addition, the fraction unbound at 2 h, 2 μM in the data set on melanin came out at 0.0231.
Turning to `CN1CCC(CCNC(=O)Nc2snc(OCc3cc4c(cc3F)CCO4)c2C(N)=O)CC1` [Compound T073], the IC50 on VEGFR1 amounted to 5.99 nM; at VEGFR3 it was 10.7 nM; at EGFR, 4550 nM; in the data set on HUVEC cells it was 26.9 nM; on VEGFR2 it was 2.73 nM.
For the compound `CN1CCC(CCNC(=O)Nc2snc(OCc3ccc4c(c3)OCC4)c2C(N)=O)CC1` [Compound T053, 3-((2,3-dihydrobenzofuran-6-yl)methoxy)-5-(3-(2-(1-methylpiperidin-4-yl)ethyl)ureido)isothiazole-4-carboxamide], the IC50 on VEGFR1 was 14.7 nM; on VEGFR3 it was 17.4 nM; at TIE2, 258 nM; on EGFR, 11400 nM; with HUVEC cells, 69.7 nM; on VEGFR2 it was 10.4 nM. Further, the fraction unbound at 2 h, 2 μM in the data set with melanin came to 0.0225.
For `COc1ccc(F)c(COc2nsc(NC(=O)NCCCCN3CC[C@H](F)C3)c2C(N)=O)c1F` [Compound T113, 3-[(2,6-difluoro-3-methoxy-phenyl)methoxy]-5-[4-[(3S)-3-fluoropyrrolidin-1-yl]butylcarbamoylamino]isothiazole-4-carboxamide], the IC50 amounted to 163 nM on TIE2, 11800 nM on EGFR, 27 nM with HUVEC cells and 14.7 nM on VEGFR2. The fraction unbound at 2 h, 2 μM in the data set with melanin worked out at 0.0268.
For the compound `NC(=O)c1c(OCc2cc3c(cc2F)CCO3)nsc1NC(=O)NCCCCN1CC[C@H](O)C1` [Compound T090, 3-[(5-fluoro-2,3-dihydrobenzofuran-6-yl)methoxy]-5-[4-[(3S)-3-hydroxypyrrolidin-1-yl]butylcarbamoylamino]isothiazole-4-carboxamide], the IC50 on VEGFR1 came to 7.73 nM; at VEGFR3, 13 nM; at EGFR it was 13900 nM; in the data set on HUVEC cells it was 46.9 nM; on VEGFR2, 3.55 nM. Besides, in the data set with melanin, the fraction unbound at 2 h, 2 μM turned out to be 0.025.
`NC(=O)c1c(OCc2cc3c(cc2F)CCO3)nsc1NC(=O)NCCC1CCN(CCF)CC1` [Compound T103, 3-[(5-fluoro-2,3-dihydrobenzofuran-6-yl)methoxy]-5-[2-[1-(2-fluoroethyl)-4-piperidyl]ethylcarbamoylamino]isothiazole-4-carboxamide]: the IC50 at TIE2 turned out to be 94.5 nM; at EGFR it was 5490 nM; in the data set on HUVEC cells, 66 nM; at VEGFR2, 4.96 nM. For the same compound, the fraction unbound at 2 h, 2 μM in the data set with melanin was 0.0229.
